Reference: US4260745A, “3-Halo cephalosporins” (Eli Lilly and Company, priority 1979, dated 1981)

Tests used:
Assay in all cases: standard disc-plate method, zone of inhibition
Assay type in all cases: cell-based
Set-up in all cases: key: --: A dash indicates no observed zone of inhibition; hazy zone
Details in all cases: Table IV
Serratia marcescens = system: Serratia marcescens
Text: (§1) In Table IV below, the in vitro antimicrobial activity of 7-[2-(2-thienyl)acetamido]-3-bromo-3-cephem-4-carboxylic acid is presented for several illustrative microorganisms. The data presented were obtained in the standard disc-plate method with the numerical values recording the diameter in millimeters of the zones of inhibition observed with the named microorganisms.

Candida albicans = system: Candida albicans
Text: as §1

Neurospora sp. = system: Neurospora sp.
Text: as §1

Measured: Zone of Inhibition (diameter in mm)

O=C(Cc1cccs1)NC1C(=O)N2C(C(=O)O)=C(Br)CS[C@H]12 (stereo partly drawn) [7-[2-(2-Thienyl)acetamido]-3-bromo-3-cephem-4-carboxylic acid]
--: Serratia marcescens; 0.01 mg./ml. | Serratia marcescens; 0.1 mg./ml. | Serratia marcescens; 1.0 mg./ml. | Candida albicans; 0.01 mg./ml. | Candida albicans; 0.1 mg./ml. | Candida albicans; 1.0 mg./ml. | Neurospora sp.; 0.01 mg./ml. | Neurospora sp.; 0.1 mg./ml. | Neurospora sp.; 1.0 mg./ml.
